Measured values from ChEMBL document CHEMBL4043113, “A novel antihypertension agent, sargachromenol D from marine brown algae, Sargassum siliquastrum, exerts dual action as an L-type Ca2+ channel blocker and endothelin A/B2 receptor antagonist” (Bioorg Med Chem, 2017).
The source made the active and inactive calls. No cut-off for these calls is given here.

Columns and labels:
Oryctolagus cuniculus = species: Oryctolagus cuniculus; assay: (§1) Antagonist activity at New Zealand rabbit endothelin A/B2 receptor assessed as dilation of endothelin-1 induced basilary artery contraction measured after 20 mins
[1] = Antagonist activity at New Zealand rabbit L-type calcium channel assessed as dilation of K+-depolarization induced basilary artery contraction measured after 20 mins; design: species or system Oryctolagus cuniculus
[2] = as §1; design: species or system Oryctolagus cuniculus

| Activity (Oryctolagus cuniculus) | EC50 [1] | EC50 [2] | Compound |
| --- | --- | --- | --- |
| inactive | 3520 nM |  | C/C(=C\CCC(C)O)CCC/C(C)=C/C(=O)CC(C)C (stereo unspecified) |
|  | 520 nM |  | COCCOC(=O)C1=C(C)NC(C)=C(C(=O)OC(C)C)C1c1cccc([N+](=O)[O-])c1 (stereo unspecified) [NIMODIPINE] |
|  |  | 530 nM | COc1ccccc1Oc1c(NS(=O)(=O)c2ccc(C(C)(C)C)cc2)nc(-c2ncccn2)nc1OCCO [BOSENTAN] |
| inactive |  |  | CC(=O)CC/C=C(\C)CCC/C(C)=C/C(=O)CC(C)C |
| inactive |  |  | CC(=O)CC/C=C(\C)CCC/C(C)=C\C(=O)CC(C)C |
